Source: patent US20060009463A1, “N-(3-rifamycinyl)-carbamates, method of preparing them and their use for treating and preventing tuberculosis” (priority 2002, published 2006)

Legend:
[1] = test system: Bacillus subtilis ATCC 6633; experiment: double-dosage method of diffusion in agar; format: cell-based; conditions: for relative activity, Bacillus subtilis ATCC 6633: activity of rifampicin taken as 1000, agar diffusion, 5 and 10 μg/ml, pH 7.4; for antibiotic activity compared with rifampicine (in words): against Bacillus subtilis
Bacillus mycoide = experiment: double-dosage method of diffusion in agar; conditions: activity of rifampicin taken as 1000, 5 and 10 μg/ml, pH 7.4
Procedure: (§1) This test is based on the logarithmic dependence between the size of the inhibition area associated with the bacterial growth in a layer of agar (response) and the quantity of the applied antibiotic.
(§2) From these solutions buffered solutions were prepared in phosphate buffer, pH 7.4 at concentrations of 5 and 10 μg/ml.
An initial suspension of the test microorganism (Bacillus subtilis ATCC 6633, Escherichia coli, Bacillus mycoide, Klebsiella pneumoniae, Pseudomonas aeruginosa) was prepared having a UV-light transmission of about 25%. A suitable diffusion medium (for example for Bacillus subtilis: 1 g pepton, 3 g yeast extract, 15-18 g agar, in 1 l water, pH 7.8-8.0 after sterilization) was inoculated with 0.5 ml of the initial suspension per 100 ml medium at a temperature of 60-65° C. 20 ml of the mixture each was filled into Petri's dishes (diameter 100 mm). […] The sizes (diameters) of the areas of inhibition were then measured with an accuracy of 0.1 mm.
(§3) The activity A was calculated according to • lg A=(lv/w) with • I=lg (high concentration/low concentration), • v=(ΣX1+ΣX2)−(ΣP1+ΣP2), and • w=(ΣX2+ΣP2)−(ΣX1+ΣP1), with • X1: area size in mm at low concentration of the sample, • X2: area size in mm at high concentration of the sample, • P1: area size in mm at low concentration of the reference, • P2: area size in mm at low concentration of the reference,

Klebsiella pneumoniae = experiment: double-dosage method of diffusion in agar; conditions: for relative activity, Klebsiella pneumoniae: activity of rifampicin taken as 1000, agar diffusion, 5 and 10 μg/ml, pH 7.4
Procedure: as §1, §2
(§4) An initial suspension of the test microorganism (Bacillus subtilis ATCC 6633, Escherichia coli, Bacillus mycoide, Klebsiella pneumoniae, Pseudomonas aeruginosa) was prepared having a UV-light transmission of about 25%. A suitable diffusion medium (for example for Bacillus subtilis: 1 g pepton, 3 g yeast extract, 15-18 g agar, in 1 l water, pH 7.8-8.0 after sterilization) was inoculated with 0.5 ml of the initial suspension per 100 ml medium at a temperature of 60-65° C. 20 ml of the mixture each was filled into Petri's dishes (diameter 100 mm). After hardening of the medium four pits (diameter 5 mm) were placed in each dish and onto every pit 90 μl of the solutions of the reference and the tested compounds were added. The dishes were incubated at 37° C. for at least 15 hours. The sizes (diameters) of the areas of inhibition were then measured with an accuracy of 0.1 mm.
as §3

Pseudomonas aeruginosa = experiment: double-dosage method of diffusion in agar; conditions: for relative activity, Pseudomonas aeruginosa: activity of rifampicin taken as 1000, agar diffusion, 5 and 10 μg/ml, pH 7.4
Procedure: as §1, §2, §4, §3

Escherichia coli = experiment: double-dosage method of diffusion in agar; conditions: for relative activity, Escherichia coli: activity of rifampicin taken as 1000, agar diffusion, 5 and 10 μg/ml, pH 7.4
Procedure: as §1, §2, §4, §3

M. tuberculosis H37Rv = experiment: ex vivo anti-mycobacterial activity, growth in mouse macrophages; format: cell-based, Mycobacterium tuberculosis; conditions: for Macrophage Data, Monolayer 1 / Macrophage Data, Monolayer 2 / Macrophage Data, Monolayer 3 / Macrophage Data, Monolayer 4 / Macrophage Data, Monolayer mean: J774 mouse macrophages infected with M. tuberculosis H37Rv; for Macrophage Data, Monolayer 1 / Macrophage Data, Monolayer 2 / Macrophage Data, Monolayer 3 / Macrophage Data, Monolayer 4: 24 hours with compound; for in vitro and ex vivo activity against Mycobacterium tuberculosis compared with rifampicine (in words): general statement of the description; for Macrophage Data, Monolayer mean: mean of monolayers 1-4, 24 hours

Structure (SMILES)	relative activity, Bacillus subtilis ATCC 6633 [1]	antibiotic activity compared with rifampicine (in words) [1]	relative activity, Bacillus mycoide (Bacillus mycoide)	relative activity, Klebsiella pneumoniae (Klebsiella pneumoniae)	relative activity, Pseudomonas aeruginosa (Pseudomonas aeruginosa)	relative activity, Escherichia coli (Escherichia coli)	Macrophage Data, Monolayer 1 (M. tuberculosis H37Rv) [CFU/ml]	Macrophage Data, Monolayer 2 (M. tuberculosis H37Rv) [CFU/ml]	Macrophage Data, Monolayer 3 (M. tuberculosis H37Rv) [CFU/ml]	Macrophage Data, Monolayer 4 (M. tuberculosis H37Rv) [CFU/ml]	in vitro and ex vivo activity against Mycobacterium tuberculosis compared with rifampicine (in words) (M. tuberculosis H37Rv)	Macrophage Data, Monolayer mean (M. tuberculosis H37Rv) [CFU/ml]	antibiotic activity compared with rifampicine (in words) (Klebsiella pneumoniae; against K. pneumoniae)	antibiotic activity compared with rifampicine (in words) (Pseudomonas aeruginosa; against P. aeruginosa)	antibiotic activity compared with rifampicine (in words) (Escherichia coli; against E. coli)	antibiotic activity compared with rifampicine (in words) ([1]; listed as N-(methyloxycarbonyl)-3-aminorifamycin S)	antibiotic activity compared with rifampicine (in words) ([1]; listed as methyl)
COC1C=COC2(C)Oc3c(C)c(O)c4c(c3C2=O)C(=O)C(NC(=O)OCCBr)=C(NC(=O)C(C)=CC=CC(C)C(O)C(C)C(O)C(C)C(OC(C)=O)C1C)C4=O (stereo not drawn) [R = 2-bromoethyl, N-(2-Bromoethyloxycarbonyl)-3-aminorifamicin S]	6600	about six times higher than rifampicine	–	–	–	–	–	–	–	–	–	–	–	–	–	–	–
COC1C=COC2(C)Oc3c(C)c(O)c4c(c3C2=O)C(=O)C(NC(=O)OCc2ccc([N+](=O)[O-])cc2)=C(NC(=O)C(C)=CC=CC(C)C(O)C(C)C(O)C(C)C(OC(C)=O)C1C)C4=O (stereo not drawn) [R = 4-nitrobenzyl, N-(4-Nitrobenzyloxycarbonyl)-3-aminorifamicin S]	5400	about six times higher than rifampicine	–	–	–	–	–	–	–	–	–	–	–	–	–	–	–
CCOC(=O)NC1=C2NC(=O)C(C)=CC=CC(C)C(O)C(C)C(O)C(C)C(OC(C)=O)C(C)C(OC)C=COC3(C)Oc4c(C)c(O)c(c(c4C3=O)C1=O)C2=O (stereo not drawn) [R = ethyl, N-(Ethyloxycarbonyl)-3-aminorifamycin S]	2050	–	1150	1030	920	690	0.00	200.00	0.00	0.00	at least as high or even higher as the activity of rifampicine	50.00	–	–	–	–	–
COC(=O)NC1=C2NC(=O)C(C)=CC=CC(C)C(O)C(C)C(O)C(C)C(OC(C)=O)C(C)C(OC)C=COC3(C)Oc4c(C)c(O)c(c(c4C3=O)C1=O)C2=O (stereo not drawn) [R = methyl, N-(Methyloxycarbonyl)-3-aminorifamycin S]	6000	–	2000	1900	1750	2100	0.00	0.00	0.00	200.00	at least as high or even higher as the activity of rifampicine	50.00	twice as high as rifampicine	twice as high as rifampicine	twice as high as rifampicine	twice as high as rifampicine	about six times higher than rifampicine
CO[C@H]1/C=C/O[C@@]2(C)Oc3c(C)c(O)c4c(O)c(c(/C=N/N5CCN(C)CC5)c(O)c4c3C2=O)NC(=O)/C(C)=C\C=C\[C@H](C)[C@H](O)[C@@H](C)[C@@H](O)[C@@H](C)[C@H](OC(C)=O)[C@@H]1C [rifampicine, reference compound]	–	–	–	–	–	–	0.00	200.00	600.00	800.00	–	400.00	–	–	–	–	–
